Results from patent publication US5610185A, “Method for the treatment of hyperproliferative epithelial skin diseases by topical application of hydroxylated aromatic protein cross-linking compounds” (The United States of America as represented by the …, priority 1995, dated 1997).
Entries after “also recorded” stand apart in the source; their conditions may differ.

How the values were obtained:
Format in all cases: cell-based
[1] = tested on: SP-1 benign tumor mouse keratinocytes; experiment: Cornified envelope (cross-linked protein) assay, SP-1 cells
Text: (§1) FIG. 1. MC Increases Cross-linked Protein in Epidermal Cell Lines. Black squares represent HPV 18 human epithelial keratinocytes; black circles represent SV 40 infected human keratinocytes; black triangles represent (SQCC-Y1) cells; white triangles represent (SP-1) benign tumor mouse keratinocytes; white squares represent (308 cells) benign mouse keratinocytes; and white circles represent (I-7) cells mouse squamous cell carcinoma.
FIGS. 2A and 2B, 2C and 2D show color phase contrast photographs. SP-1 cells were treated with vehicle (A and C) or 250 μM MC (B and D) for 48 hours. In A and B phase contrast photomicrographs were taken.
Primary mouse keratinocytes were isolated from BALB/c newborn mouse skin. […]
(§2) Cells were incubated with MC for 48 hours, then cross-linked protein was isolated and measured as described in Example 1.
(§3) The assay measures insoluble cross-linked protein envelopes as described (Hough-Monroe et al. Analytical biochem., 199, 25-28, 1991), with modifications as follows. […] Absorbance of eluate was measured on a Titertek plate reader at 600 nm.

[2] = tested on: 308 cells (benign neoplastic mouse keratinocytes); experiment: Cornified envelope (cross-linked protein) assay, 308 cells; details: 308 (papilloma), 48 h, 0.1-1 mM
Text: as §1
(§4) Primary mouse keratinocytes were isolated from BALB/c newborn mouse skin. Primary keratinocytes, the benign neoplastic keratinocyte cell lines 308 and SP-1 (Strickland et al, Cancer Res., 48, 165-169, 1988) and the mouse squamous cell carcinoma line 1-7 (Greenhalgh et al., Proc. Natl. Acad. Sci., 87, 643-647, 1990) were grown in Eagle's minimal essential medium with 8% fetal calf serum (FCS) (chelexed) and penicillin 20 iu/ml, streptomycin 20 ug/ml (P/S). Unless otherwise indicated, the Ca^2+ concentration in medium was adjusted to 0.05 mM (Hennings et al., Cells, 19, 245-254, 1980). […]
as §2, §3

[3] = tested on: SQCC-Y1 human squamous carcinoma cells; experiment: Cornified envelope (cross-linked protein) assay, SQCC-Y1 cells; details: SQCC-Y1, 48 h, 0.1-1 mM
[4] = tested on: A431 human epidermoid carcinoma cells; experiment: Cornified envelope (cross-linked protein) assay, A431 cells
Text: (§5) FIG. 5. Cross-linked Protein Production vs Growth Inhibition in A431 ([…]) Cells. Cell growth is represented by black circles and crosslinked protein production by white circles. Results are ±SD (n=3) of one experiment, representative of three.
as §4, with “(P/S).” for “(P/S). Unless otherwise indicated, the Ca^2+ concentration in medium was adjusted to 0.05 mM (Hennings et al., Cells, 19, 245-254, 1980).”
as §2, §3
(§6) Cells were seeded at low density and were treated with MC for 3 days. Cells were then counted and increase in cell number was compared to untreated controls, or cells were processed for cross-linked protein (FIG. 5).

[5] = tested on: HPV 18 infected human keratinocytes; experiment: Cornified envelope (cross-linked protein) assay, HPV 18 infected keratinocytes; details: 48 h, 0.1-1 mM
Text: as §1, §4, §2, §3

[6] = tested on: primary mouse keratinocytes; experiment: Cornified envelope (cross-linked protein) assay, primary mouse keratinocytes
Protocol: FIGS. 3A and 3B. A: Time course for cornification of primary mouse keratinocytes in response to MC. Boxes represent […] Ca^2+, triangles represent 100 μM MC, 1.4 mM Ca^2+, and solid circles represent 1 mM MC, 1.4 mM Ca^2+. […] Cells were incubated in medium with 1.4 mM Ca^2+ and MC for 4 hours, then were incubated with MTT (0.5 mg/ml in medium) for a further 4 hours before determination of formazan production.
Primary mouse keratinocytes were isolated from BALB/c newborn mouse skin. Primary keratinocytes, the benign neoplastic keratinocyte cell lines 308 and SP-1 (Strickland et al, Cancer Res., 48, 165-169, 1988) and the mouse squamous cell carcinoma line 1-7 (Greenhalgh et al., Proc. Natl. Acad. Sci., 87, 643-647, 1990) were grown in Eagle's minimal essential medium with 8% fetal calf serum (FCS) (chelexed) and penicillin 20 iu/ml, streptomycin 20 ug/ml (P/S). Unless otherwise indicated, the Ca^2+ concentration in medium was adjusted to 0.05 mM (Hennings et al., Cells, 19, 245-254, 1980). A431 human epidermoid carcinoma cells were obtained from ATCC, Rockville, Md., and were routinely passaged in DMEM with 10% FCS, P/S, glutamine (2 mM) and pyruvate (1 mM). SQCC-Y1 human squamous carcinoma cells and non-tumorigenic HPV 18 and SV 40 infected human keratinocytes were kindly donated by Dr. James Rheinwald of Harvard University, Boston, Mass. and Dr. Richard Schlegel of Georgetown University, Washington D.C. respectively. Human cells were cultured in DMEM/Ham's F12 1:1, 10% FCS, P/S and epidermal growth factor 10 ng/ml.
Primary mouse keratinocytes were incubated with MC for 0, 0.5, 1, 4 and 48 hours and were processed as follows.
The assay measures insoluble cross-linked protein envelopes as described (Hough-Monroe et al. Analytical biochem., 199, 25-28, 1991), with modifications as follows. Cornified envelopes were prepared by scraping monolayers into 2% sodium dodecylsulphate (SDS), 20 mM dithiothreitol (DTT) in phosphate buffered saline (PBS). Unattached cells were pelleted from medium and were resuspended in SDS/DTT and pooled with attached cells. Samples were boiled for 10 mins. Cornified envelope samples were examined under the microscope using phase contrast optics or were applied to an RC60 membrane (Schleicher and Schuell, Keene, N.H.) on a 96-well dot-blot apparatus attached to a vacuum. Samples were washed three times with SDS/DTT and the resultant protein spots on RC60 membrane were fixed and stained as described. Sports were excised and eluted with 1% NH3 OH concentrated solution, 66% methanol (200 ul) overnight. Absorbance of eluate was measured on a Titertek plate reader at 600 nm.
Cells were seeded at low density and were treated with MC for 3 days. Cells were then counted and increase in cell number was compared to untreated controls, or cells were processed for cross-linked protein.
Inhibitors were added 30 mins before MC or stsp (FIG. 6). Cross-linked protein was measured by the cornified envelope assay, described in Example 2.

NIH 3T3 fibroblasts = experiment: Protein envelope formation in NIH 3T3 fibroblasts
[7] = tested on: A431 human epidermoid carcinoma cells; experiment: Growth inhibition (cell count), A431 cells; details: 75 μM MC, 3 days
Protocol: as §5, §6

transglutaminase = experiment: Transglutaminase activity in primary mouse keratinocytes
Protocol: FIG. 7. […] Black columns represent untreated cells in 1.4 mM Ca^2+ medium; and hatched columns represent cells treated with 1 mM MC. Cytosol is represented by "C" and membrane fractions are represented by "M". Results are ±SD (n=2) and were repeated in a similar experiment.
One embodiment of the present invention uses an erbstatin analog, methyl 2,5-dihydroxycinnamate, which forms cross-linked protein envelopes in normal and neoplastic epithelial cells by a mechanism independent of tyrosine kinase inhibition. Methyl 2,5-dihydroxycinnamate (MC) is a tyrosine kinase inhibitor. To assess its ability to induce epithelial cell differentiation, crosslinked protein envelopes were measured after a 48 h incubation with agent. […] To confirm differentiation, MC-treated mouse primary keratinocytes were tested for transglutaminase (TGase) activity, inhibition of protein cross-linking by the TGase inhibitor LTB-2 and HPB-2 and incorporation of the fluorescent TGase substrate dansylcadaverine into envelopes. […] This effect, in concert with growth inhibitory properties, may be useful clinically in the topical treatment of warts or superficial neoplasias of the skin.
Mouse primary keratinocytes were incubated in medium with 1.4 mM Ca^2+ for the indicated times. MC-induced cross-linking commences within 4 hours (see FIG. 3). […]

## COC(=O)C=Cc1cc(O)ccc1O [MC, methyl 2,5-dihydroxycinnamate]
[1]; SP-1, 250 μM, 48 hours
  formation of cross-linked cornified envelopes (phase contrast): formation of cross-linked cornified envelopes
[1]; SP-1, 48 h, 0.1-1 mM
  cross-linked protein (envelope production): induced crosslinked envelope production; also recorded: increased cross-linked protein in a dose-dependent manner
[2]
  cross-linked protein (envelope production): induced crosslinked envelope production; also recorded: increased cross-linked protein in a dose-dependent manner
[3]
  cross-linked protein (envelope production): induced crosslinked envelope production; also recorded: increased cross-linked protein in a dose-dependent manner
[4]; A431, 48 h, 0.1-1 mM
  cross-linked protein (envelope production): induced crosslinked envelope production; also recorded: increased cross-linked protein in a dose-dependent manner
[4]; Homo sapiens, A-431, 72 h, A431, 3 days, read-out: concentration at which protein cross-linking is evident
  minimal effective concentration: ≥ 250 µM
[5]
  cross-linked protein (envelope production): induced crosslinked envelope production; also recorded: increased cross-linked protein in a dose-dependent manner
[6]; 100 μM, 48 hours
  cornification after 48 hours: effective
[6]; 1 mM, 48 hours
  cornification after 48 hours: effective
[6]; 1 mM, primary mouse keratinocytes
  time within which cornification / cross-linking occurs or commences: ≤ 4 h
[6]; 4° C. and 37° C., 48 hours
  cross-linked protein at 4° C. and 37° C.: took place at 4 °C and 37 °C; also recorded: Induces Cross-linked protein; also recorded: able to induce cross-linked protein effectively at 4° or 37 °C
[6]; Keratinocyte, 72 h, primary mouse keratinocytes, 3 days, read-out: concentration required to produce protein cross-linking
  minimal effective concentration: > 50 µM
[6]; LTB 2 and HPB 2 at 100 μM, MC 75 or 1000 μM or staurosporine 10 nM, 48 hours
  effect of transglutaminase inhibitors on cross-linking activity: not affected by transglutaminase inhibitors; also recorded: not inhibited by transglutaminase (TGase) inhibitors; also recorded: do not Prevent Protein Cross-linking
[6]; primary mouse keratinocytes, 48 h, 0.1-1 mM
  cross-linked protein (envelope production): induced crosslinked envelope production; also recorded: increased cross-linked protein in a dose-dependent manner
NIH 3T3 fibroblasts; 3T3 cells, simultaneous DTT 20 mM, 37° and 4° C.
  effect of DTT on cross-linking by MC: prevented cross-linking
NIH 3T3 fibroblasts; even when incubated at 4° C. in phosphate buffered saline
  protein envelopes induced in NIH 3T3 fibroblasts: induced protein envelopes
[7]
  inhibition of cell growth: inhibited cell growth significantly
transglutaminase; 1 mM MC, 4 hrs, cytosol and membrane fractions
  transglutaminase activity: not stimulated; also recorded: does not Increase Transglutaminase Activity
transglutaminase; TGase activity, TGase inhibitors LTB-2 and HPB-2, dansylcadaverine incorporation
  involvement of transglutaminase in the mode of action: refuted the involvement of TGase
